Assay results as given in US20260355188A1, “COMBINATION THERAPIES USING PRMT5 INHIBITORS AND BCL-2 FAMILY INHIBITORS FOR THE TREATMENT OF CANCER” (MIRATI THERAPEUTICS, INC., priority 2022, published 2026).

Key:
H1650 = assay: In vitro combination synergy, H1650 (Cell-Titer Glo); format: cell-based; conditions: combined with exemplary PRMT5 inhibitor, 120 h, sum of Loewe, Bliss, HSA and ZIP scores
Protocol: A panel of MTAP-deleted cancer cell lines was assembled to determine whether combining BCL-2 family inhibitors with exemplary PRMT5 inhibitors disclosed herein results in synergistic activity.
[Assays for determining the synergy score for the pairwise combinations for each cell line were performed in triplicate. 384 or 96-well plates plus additional wells of a separate 384 or 96-well control plate for determining baseline luminescence were seeded with cells of a particular MTAP-deleted cell line in a suitable growth medium for that cell line, e.g., RPMI 1640 medium supplemented with 10% FBS and any cell line specific reagents needed for growth. The plates were incubated overnight at 37 °C in a 5% CO2 atmosphere.
To each of the designated baseline wells, Cell-Titer Glo reagent (CTG; Promega Corporation) was added to each well and the plates were incubated for 20 min shaking at room temperature. Baseline luminescence was quantitated using a BMG ClarioStar multimode plate reader according to the manufacturer's instructions.
A series of 1000× drug dilutions in 100% DMSO was prepared that includes a 9-point single agent 3-fold dilution of the exemplary PRMT5 inhibitor (of the type described in WO2021/050915) with a top dose of 3000 nM (and a 6-point single agent 5-fold dilution of the BCL-2 family inhibitor with a top dose of 3000 nM as reference standards.
A 10× intermediate dosing plate was prepared in serum free medium that contains arrayed single agent dilutions of exemplary PRMT5 inhibitor (of the type described in WO2021/050915) and or the BCL-2 family inhibitor. In addition, a matrix of 54 dilution combinations of exemplary PRMT5 inhibitor (of the type described in WO2021/050915) and the BCL-2 family inhibitor was prepared as test samples.
To each corresponding well of the 384-well plates seeded with the appropriate cell line above, 10× single agent and the 54 combinations of the dose matrix was added and the plates were incubated for 120 hours at 37 °C in 5% CO2 atmosphere. Cell-Titer Glo reagent (CTG) was added to each test well, the plates were incubated for 20 min shaking at room temperature, and luminescence was quantitated using a BMG ClarioStar multimode plate reader according to the manufacturer's instructions. To normalize test samples, the determined baseline luminescence was subtracted from each test sample prior to analysis and mean values are calculated from replicate samples.
The output of the data from each mathematical model is the assignment of a relative synergy score. The data reported in Table 6 are the aggregate sum of the Loewe additivity, Bliss independence, Highest Single Agent and ZIP synergy scores (“Composite Synergy Score”).

[1] = oral; cited from earlier work

Compound | Composite Synergy Score (H1650) | bioavailable when administered orally [1]
CC1(C)CCC(c2ccc(Cl)cc2)=C(CN2CCN(c3ccc(C(=O)NS(=O)(=O)c4ccc(N[C@H](CCN5CCOCC5)CSc5ccccc5)c(S(=O)(=O)C(F)(F)F)c4)cc3)CC2)C1 [ABT-263, navitoclax] | 32 | –
Cc1c(-c2ccc(N3CCc4cccc(C(=O)Nc5nc6ccccc6s5)c4C3)nc2C(=O)O)cnn1CC12CC3CC(CC(C3)C1)C2 [A-1331852] | 62 | known to be bioavailable when administered orally
